Measurements reported in PMC4529466, “Intradermal insulin infusion achieves faster insulin action than subcutaneous infusion for 3-day wear” (Drug Delivery and Translational Research, 2015).

Test system: blood glucose
Experiment: Postprandial blood glucose pharmacodynamics after meal bolus, 3-day ID vs SC infusion
Assay type: in vivo, human (T1DM patients)
Settings: SC; for BGavg0–1 / BGmax0–1 / ΔAUC-BG0–1 / ΔBGmax0–1 / BGavg0–1.5 / BGmax0–1.5 / ΔAUC-BG0–1.5 / ΔBGmax0–1.5 / BGavg0–2 / BGmax0–2 / ΔAUC-BG0–2 / ΔBGmax0–2 / BGavg0–4 / BGmax0–4 / ΔAUC-BG0–4 / ΔBGmax0–4 / BG1 / ΔBG1 / BG1.5 / ΔBG1.5 / BG2 / ΔBG2 / BG4 / ΔBG4: mean ± SD; for BG1 / ΔBG1: at 1 h; for BG1.5 / ΔBG1.5: at 1.5 h; for BG2 / ΔBG2: at 2 h; for BG4 / ΔBG4: at 4 h
Text: This was a single center, open-label, two-period crossover study, randomized by infusion order, in T1DM patients on continuous subcutaneous insulin infusion (CSII). The protocol was approved by an independent ethics committee (Ethikkommission der Ärztekammer Nordrhein, Düsseldorf, Germany), appropriate regulatory bodies (German Federal Institute for Drugs and Medical Devices (BfArM)), and conducted in compliance with good clinical practice (GCP), the Declaration of Helsinki, and applicable regulatory requirements.
The study was completed over a multi-week period consisting of three study visits: a screening visit (V1) and two interventional visits (V2 and V3). After establishing eligibility and enrollment, patients received treatment during two interventional visits: one SC and one ID basal/bolus infusion of insulin aspart (NovoRapid® U-100, Novo Nordisk, Copenhagen, Denmark) administered over 3 days in a randomized order.
Individual meal bolus doses were determined based on patient self-reported insulin to carbohydrate ratios and insulin sensitivity, historical self-reported insulin usage for meal coverage, and clinician review and adjustment of insulin usage during the in-clinic BG stabilization period the evening prior to the first morning meal. Basal insulin infusion rates were initiated based on the patient’s known daily delivery profile and could be adjusted by the clinician to maintain levels within 70–160 mg/dL according to a predetermined sliding scale and hourly changes in glycemia. A continuous glucose monitor (Seven Plus®, DexCom Inc., San Diego, CA) calibrated per manufacturer’s recommendations was applied to continuously monitor glycemia as a safety measure, in addition to periodic blood sampling for BG determination.
After maintaining targeted blood glucose range during the preceding night, bolus insulin doses were administered via the respective infusion catheter prior to standardized breakfast and lunch test meals on each of the three treatment days. Each meal insulin bolus was calculated based on the patient’s insulin sensitivity and previous hours change in BG per sliding scale then delivered immediately prior to breakfast (t = 0 min) and lunch (t = 360 min) consumption. Breakfast was a high glycemic index (60 g carbohydrates) solid meal, and lunch was a mixed meal based on the individual’s calculated daily energy intake and equivalent in caloric composition by day. Breakfast and lunch meals were consumed within 15 min followed by serial blood sampling with BG monitoring for a period of 6 and 4 h, respectively. Patients were asked to remain sedentary for 2 h after meals. Identical study procedures were utilized for the remaining dosing visit days (Fig. 2).
To assess insulin absorption kinetics and glycemic response, blood samples for measurements of insulin aspart and blood glucose in serum were drawn at predefined time points throughout dosing visits. Serial samples for safety BG determination, but not PK analysis, were obtained at a minimum every 2 h. Meal PK/PD analysis samples were acquired immediately pre-bolus and for 4–6 h post-bolus for breakfast and lunch meals, with a higher frequency during the first 2 h to capture insulin and BG peak levels {Post-bolus breakfast time points (min): 0, 10, 15, 20, 25, 30, 35, 40, 45, 50, 55, 60, 65, 70, 80, 90, 120, 150, 180, 210, 240, 300, 330, 360; Post-bolus lunch time points (min): 0, 10, 20, 30, 40, 50, 60, 70, 80, 90, 120, 180, 240, 300}. Sampling times were based on previous clinical study experience for bolus microneedle insulin delivery and had increased sampling frequency in the first 90 min post-delivery to capture the rapid insulin peaks from microneedle ID delivery. Blood samples for evening meal and basal period PK assessment could not be obtained due to daily blood draw volume limits for patient safety. Serum insulin aspart was measured by a third party laboratory (IKFE GmbH, Mainz, Germany) using a validated insulin assay (Invitron ELISA kit). […]

[1] = 0–1 h, Days 1–3 combined, all test meals, n = 150–156
[2] = 0–1 h, across all study days and meals
[3] = 0–1.5 h, Days 1–3 combined, all test meals, n = 150–156
[4] = 0–1.5 h, across all study days and meals
[5] = 0–2 h, Days 1–3 combined, all test meals, n = 150–156
[6] = 0–2 h, across all study days and meals
[7] = 0–4 h, Days 1–3 combined, all test meals, n = 150–156
[8] = Days 1–3 combined, all test meals, n = 150–156

insulin aspart
BG at 1 h: 165 | BGavg0–1 (0–1 h, Day 1, across meals): 138 ± 33.4 mg/dL | BGmax0–1 (0–1 h, Day 1, across meals): 166 ± 40.1 mg/dL | ΔAUC-BG0–1 (0–1 h, Day 1, across meals): 29.1 ± 25.7 mg·h/dL | ΔBGmax0–1 (0–1 h, Day 1, across meals): 57.1 ± 36.0 mg/dL | BGavg0–1 (0–1 h, Day 2, across meals): 147 ± 32.5 mg/dL | BGmax0–1 (0–1 h, Day 2, across meals): 176 ± 39.2 mg/dL | ΔAUC-BG0–1 (0–1 h, Day 2, across meals): 26.7 ± 20.9 mg·h/dL | ΔBGmax0–1 (0–1 h, Day 2, across meals): 55.8 ± 31.0 mg/dL | BGavg0–1 (0–1 h, Day 3, across meals): 145 ± 30.3 mg/dL | BGmax0–1 (0–1 h, Day 3, across meals): 175 ± 37.9 mg/dL | ΔAUC-BG0–1 (0–1 h, Day 3, across meals): 26.5 ± 19.5 mg·h/dL | ΔBGmax0–1 (0–1 h, Day 3, across meals): 57.2 ± 33.0 mg/dL | BGavg0–1 [1]: 143 ± 32.2 mg/dL | BGmax0–1 [1]: 172 ± 39.2 mg/dL | ΔAUC-BG0–1 [1]: 27.5 ± 22.2 mg·h/dL | ΔBGmax0–1 [1]: 56.7 ± 33.3 mg/dL | Intra-subject variability of BGavg [2]: 18.2 %CV | Intra-subject variability of BGmax [2]: 18.1 %CV | BGavg0–1.5 (0–1.5 h, Day 1, across meals): 144 ± 36.0 mg/dL | BGmax0–1.5 (0–1.5 h, Day 1, across meals): 174 ± 43.6 mg/dL | ΔAUC-BG0–1.5 (0–1.5 h, Day 1, across meals): 53.4 ± 46.7 mg·h/dL | ΔBGmax0–1.5 (0–1.5 h, Day 1, across meals): 65.0 ± 42.3 mg/dL | BGavg0–1.5 (0–1.5 h, Day 2, across meals): 154 ± 35.3 mg/dL | BGmax0–1.5 (0–1.5 h, Day 2, across meals): 182 ± 41.7 mg/dL | ΔAUC-BG0–1.5 (0–1.5 h, Day 2, across meals): 50.8 ± 40.9 mg·h/dL | ΔBGmax0–1.5 (0–1.5 h, Day 2, across meals): 61.6 ± 33.2 mg/dL | BGavg0–1.5 (0–1.5 h, Day 3, across meals): 152 ± 33.4 mg/dL | BGmax0–1.5 (0–1.5 h, Day 3, across meals): 182 ± 40.0 mg/dL | ΔAUC-BG0–1.5 (0–1.5 h, Day 3, across meals): 51.3 ± 39.8 mg·h/dL | ΔBGmax0–1.5 (0–1.5 h, Day 3, across meals): 63.9 ± 36.8 mg/dL | BGavg0–1.5 [3]: 150 ± 35.0 mg/dL | BGmax0–1.5 [3]: 179 ± 41.8 mg/dL | ΔAUC-BG0–1.5 [3]: 51.9 ± 42.5 mg·h/dL | ΔBGmax0–1.5 [3]: 63.6 ± 37.6 mg/dL | Intra-subject variability of BGavg [4]: 18.2 %CV | Intra-subject variability of BGmax [4]: 17.9 %CV | BGavg0–2 (0–2 h, Day 1, across meals): 147 ± 39.3 mg/dL | BGmax0–2 (0–2 h, Day 1, across meals): 178 ± 49.1 mg/dL | ΔAUC-BG0–2 (0–2 h, Day 1, across meals): 77.0 ± 73.2 mg·h/dL | ΔBGmax0–2 (0–2 h, Day 1, across meals): 69.7 ± 49.0 mg/dL | BGavg0–2 (0–2 h, Day 2, across meals): 157 ± 38.2 mg/dL | BGmax0–2 (0–2 h, Day 2, across meals): 186 ± 43.4 mg/dL | ΔAUC-BG0–2 (0–2 h, Day 2, across meals): 73.6 ± 63.3 mg·h/dL | ΔBGmax0–2 (0–2 h, Day 2, across meals): 65.5 ± 34.7 mg/dL | BGavg0–2 (0–2 h, Day 3, across meals): 155 ± 36.1 mg/dL | BGmax0–2 (0–2 h, Day 3, across meals): 186 ± 42.4 mg/dL | ΔAUC-BG0–2 (0–2 h, Day 3, across meals): 75.1 ± 63.0 mg·h/dL | ΔBGmax0–2 (0–2 h, Day 3, across meals): 68.1 ± 40.3 mg/dL | BGavg0–2 [5]: 153 ± 38.0 mg/dL | BGmax0–2 [5]: 183 ± 45.1 mg/dL | ΔAUC-BG0–2 [5]: 75.3 ± 66.5 mg·h/dL | ΔBGmax0–2 [5]: 67.8 ± 41.8 mg/dL | Intra-subject variability of BGavg [6]: 19.3 %CV | Intra-subject variability of BGmax [6]: 18.5 %CV | BGavg0–4 (0–4 h, Day 1, across meals): 142 ± 41.2 mg/dL | BGmax0–4 (0–4 h, Day 1, across meals): 179 ± 44.4 mg/dL | ΔAUC-BG0–4 (0–4 h, Day 1, across meals): 133 ± 160 mg·h/dL | ΔBGmax0–4 (0–4 h, Day 1, across meals): 76.5 ± 54.6 mg/dL | BGavg0–4 (0–4 h, Day 2, across meals): 155 ± 44.0 mg/dL | BGmax0–4 (0–4 h, Day 2, across meals): 193 ± 49.3 mg/dL | ΔAUC-BG0–4 (0–4 h, Day 2, across meals): 140 ± 157 mg·h/dL | ΔBGmax0–4 (0–4 h, Day 2, across meals): 72.3 ± 40.0 mg/dL | BGavg0–4 (0–4 h, Day 3, across meals): 156 ± 40.1 mg/dL | BGmax0–4 (0–4 h, Day 3, across meals): 194 ± 41.7 mg/dL | ΔAUC-BG0–4 (0–4 h, Day 3, across meals): 154 ± 148 mg·h/dL | ΔBGmax0–4 (0–4 h, Day 3, across meals): 76.2 ± 40.4 mg/dL | BGavg0–4 [7]: 151 ± 42.0 mg/dL | BGmax0–4 [7]: 188 ± 45.4 mg/dL | ΔAUC-BG0–4 [7]: 142 ± 155 mg·h/dL | ΔBGmax0–4 [7]: 75.0 ± 45.6 mg/dL | Intra-subject variability of BGmax (0–4 h, across all study days and meals): 18.0 %CV | BG1 (Day 1, across meals): 158 ± 43.8 mg/dL | ΔBG1 (Day 1, across meals): 49.0 ± 41.5 mg/dL | BG1 (Day 2, across meals): 169 ± 40.9 mg/dL | ΔBG1 (Day 2, across meals): 48.8 ± 37.9 mg/dL | BG1 (Day 3, across meals): 170 ± 40.9 mg/dL | ΔBG1 (Day 3, across meals): 51.8 ± 37.9 mg/dL | BG1 [8]: 165 ± 42.1 mg/dL | ΔBG1 [8]: 49.8 ± 39.0 mg/dL | BG1.5 (Day 1, across meals): 156 ± 51.2 mg/dL | ΔBG1.5 (Day 1, across meals): 47.5 ± 51.9 mg/dL | BG1.5 (Day 2, across meals): 167 ± 48.3 mg/dL | ΔBG1.5 (Day 2, across meals): 47.2 ± 44.8 mg/dL | BG1.5 (Day 3, across meals): 167 ± 48.3 mg/dL | ΔBG1.5 (Day 3, across meals): 48.9 ± 48.1 mg/dL | BG1.5 [8]: 163 ± 49.3 mg/dL | ΔBG1.5 [8]: 47.9 ± 48.2 mg/dL | BG2 (Day 1, across meals): 152 ± 60.1 mg/dL | ΔBG2 (Day 1, across meals): 43.7 ± 62.7 mg/dL | BG2 (Day 2, across meals): 164 ± 54.2 mg/dL | ΔBG2 (Day 2, across meals): 44.0 ± 51.2 mg/dL | BG2 (Day 3, across meals): 164 ± 52.3 mg/dL | ΔBG2 (Day 3, across meals): 46.2 ± 52.4 mg/dL | BG2 [8]: 160 ± 55.7 mg/dL | ΔBG2 [8]: 44.6 ± 55.6 mg/dL | BG4 (Day 1, across meals): 139 ± 52.4 mg/dL | ΔBG4 (Day 1, across meals): 29.7 ± 53.3 mg/dL | BG4 (Day 2, across meals): 148 ± 59.4 mg/dL | ΔBG4 (Day 2, across meals): 27.7 ± 56.8 mg/dL | BG4 (Day 3, across meals): 153 ± 48.9 mg/dL | ΔBG4 (Day 3, across meals): 35.1 ± 47.2 mg/dL | BG4 [8]: 146 ± 53.7 mg/dL | ΔBG4 [8]: 30.8 ± 52.3 mg/dL | Intra-subject variability of BG (time 1 h, across all study days and meals): 20.2 %CV | Intra-subject variability of BG (time 1.5 h, across all study days and meals): 24.5 %CV | Intra-subject variability of ΔBG (time 2 h, across all study days and meals): 61.4 %CV
